The target in data set [1] is 5-hydroxytryptamine receptor 2A (Homo sapiens, UniProt P28223). The data set can be described thus: GPCRScan assay: inhibition of 5-HT2A. The arrangement: radioligand conc. used [nm] 1.2 – 2.4, parental cells HEKT.
The target in data set [2] is Beta-1 adrenergic receptor (Homo sapiens) (UniProt P08588). In words: beta1 (h) CEREP ligand profiling. Particulars: Compound concentration 10.0 uM; call rule not given here.
The next data set deals with Cannabinoid receptor 1 (Homo sapiens, UniProt P21554). The data set can be described thus: CB1 (h) CEREP ligand profiling.
Data set [3] in a line: Glycine (strychnine-insensitive) CEREP ligand profiling. The note with it: Compound concentration 10.0 uM.
For data set [4], the target named is Histamine H1 receptor (Homo sapiens) (UniProt P35367). The data set can be described thus: H1 (h) CEREP ligand profiling. Particulars: Compound concentration 10.0 uM.
Data set [5] deals with Neuronal acetylcholine receptor; alpha4/beta2 (Homo sapiens) (UniProt P17787+P43681). The data set can be described thus: N(neuronal) (α-BGTX-insensitive) (α4β2 nicotinic receptor) CEREP ligand profiling. The note with it: Compound concentration 10.0 uM.
Data set [6] has as its target 5-hydroxytryptamine receptor 1A (Homo sapiens) (UniProt P08908). The data set can be described thus: 5-HT1A (h) CEREP ligand profiling. The note with it: Compound concentration 10.0 uM.
Data set [7] addresses 5-hydroxytryptamine receptor 1B (Homo sapiens) (UniProt P28222). The data set can be described thus: 5-HT1B CEREP ligand profiling. Particulars: Compound concentration 10.0 uM.
Data set [8] has as its target 5-hydroxytryptamine receptor 7 (Homo sapiens) (UniProt P34969). The data set can be described thus: 5-HT7 (h) CEREP ligand profiling. The note with it: Compound concentration 10.0 uM.
Data set [9] has as its target Ca2+ channel (L, verapamil site) (phenylalkylamines); voltage-gated L-type calcium channel (Homo sapiens, UniProt O60840+Q01668+Q13698+Q13936). In words: Ca2+ channel (L, verapamil site) (phenylalkylamines) CEREP ligand profiling. Format: protein assay. The note with it: compound concentration 10 uM.
The target of data set [10] is Phosphodiesterase 3 (Homo sapiens) (UniProt Q14432+Q13370). The data set can be described thus: PDE 3 (h) CEREP ligand profiling. Format: protein assay. The note with it: Compound concentration 10.0 uM.
The target of data set [11] is Vascular endothelial growth factor receptor 1 (Homo sapiens) (UniProt P17948). In words: FLT-1 (h) (VEGFR1) CEREP ligand profiling. Particulars: Compound concentration 10.0 uM.
Data set [12] has as its target Acetylcholinesterase (Homo sapiens) (UniProt P22303). The data set can be described thus: Acetylcholinesterase (h) CEREP ligand profiling. The note with it: Compound concentration 10.0 uM.
Data set [13] concerns the target 5-hydroxytryptamine receptor 1A (Homo sapiens) (UniProt P08908). Particulars: Compound concentration 10.0 uM.
Data set [14] deals with Delta-type opioid receptor (Homo sapiens) (UniProt P41143). The note with it: Compound concentration 10.0 uM.
In data set [15] the target is Alpha-1A adrenergic receptor (Homo sapiens) (UniProt P35348). Particulars: Compound concentration 10.0 uM.

Sequence of Cannabinoid receptor 1 (P21554 whole entry): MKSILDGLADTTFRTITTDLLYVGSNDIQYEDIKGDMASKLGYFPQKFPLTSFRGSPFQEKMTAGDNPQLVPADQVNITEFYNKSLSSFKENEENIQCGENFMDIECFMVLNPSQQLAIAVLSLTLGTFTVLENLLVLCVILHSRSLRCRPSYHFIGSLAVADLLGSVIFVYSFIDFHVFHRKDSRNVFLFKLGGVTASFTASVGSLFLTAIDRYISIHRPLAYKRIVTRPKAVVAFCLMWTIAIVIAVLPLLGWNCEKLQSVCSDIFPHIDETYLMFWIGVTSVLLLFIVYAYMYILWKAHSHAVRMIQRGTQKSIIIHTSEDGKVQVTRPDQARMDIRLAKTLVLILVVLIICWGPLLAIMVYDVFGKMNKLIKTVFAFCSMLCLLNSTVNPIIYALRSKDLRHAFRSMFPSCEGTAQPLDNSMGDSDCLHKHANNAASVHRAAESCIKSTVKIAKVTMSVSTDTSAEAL
Sequence of 5-hydroxytryptamine receptor 1A (Homo sapiens) (P08908 whole entry): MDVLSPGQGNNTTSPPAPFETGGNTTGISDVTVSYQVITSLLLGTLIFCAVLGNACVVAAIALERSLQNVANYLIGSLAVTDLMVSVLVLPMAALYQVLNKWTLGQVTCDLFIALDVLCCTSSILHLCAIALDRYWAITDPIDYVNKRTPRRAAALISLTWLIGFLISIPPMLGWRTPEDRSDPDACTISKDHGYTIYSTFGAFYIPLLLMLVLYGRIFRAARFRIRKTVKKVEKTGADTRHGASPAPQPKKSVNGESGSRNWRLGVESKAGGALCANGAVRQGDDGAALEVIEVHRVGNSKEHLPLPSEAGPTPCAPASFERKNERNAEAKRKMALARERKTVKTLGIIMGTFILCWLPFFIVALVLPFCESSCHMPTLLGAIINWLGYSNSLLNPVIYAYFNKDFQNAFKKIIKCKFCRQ
Sequence of 5-hydroxytryptamine receptor 1B (Homo sapiens) (P28222 whole entry): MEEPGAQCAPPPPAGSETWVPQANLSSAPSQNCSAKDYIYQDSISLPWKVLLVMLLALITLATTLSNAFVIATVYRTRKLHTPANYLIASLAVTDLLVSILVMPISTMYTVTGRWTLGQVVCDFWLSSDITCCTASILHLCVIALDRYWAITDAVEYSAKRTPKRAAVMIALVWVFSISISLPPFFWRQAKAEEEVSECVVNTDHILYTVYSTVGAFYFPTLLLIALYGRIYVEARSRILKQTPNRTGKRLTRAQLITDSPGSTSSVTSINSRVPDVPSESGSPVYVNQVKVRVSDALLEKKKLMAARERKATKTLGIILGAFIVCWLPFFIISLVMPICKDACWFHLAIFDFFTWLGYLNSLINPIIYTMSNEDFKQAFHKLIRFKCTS
Sequence of 5-hydroxytryptamine receptor 2A (P28223 whole entry): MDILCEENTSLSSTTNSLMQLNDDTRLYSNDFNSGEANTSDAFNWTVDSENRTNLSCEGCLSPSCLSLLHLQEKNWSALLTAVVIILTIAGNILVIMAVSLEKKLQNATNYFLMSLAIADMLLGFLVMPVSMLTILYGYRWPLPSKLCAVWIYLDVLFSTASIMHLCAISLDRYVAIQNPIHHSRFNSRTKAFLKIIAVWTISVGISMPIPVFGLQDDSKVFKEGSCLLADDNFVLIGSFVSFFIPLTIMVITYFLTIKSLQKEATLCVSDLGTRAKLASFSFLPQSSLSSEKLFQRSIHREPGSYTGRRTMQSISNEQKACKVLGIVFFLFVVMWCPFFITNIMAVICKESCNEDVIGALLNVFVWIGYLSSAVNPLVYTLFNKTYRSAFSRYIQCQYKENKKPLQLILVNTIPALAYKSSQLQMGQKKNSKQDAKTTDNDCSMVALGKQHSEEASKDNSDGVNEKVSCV
Sequence of Vascular endothelial growth factor receptor 1 (Homo sapiens) (P17948 whole entry): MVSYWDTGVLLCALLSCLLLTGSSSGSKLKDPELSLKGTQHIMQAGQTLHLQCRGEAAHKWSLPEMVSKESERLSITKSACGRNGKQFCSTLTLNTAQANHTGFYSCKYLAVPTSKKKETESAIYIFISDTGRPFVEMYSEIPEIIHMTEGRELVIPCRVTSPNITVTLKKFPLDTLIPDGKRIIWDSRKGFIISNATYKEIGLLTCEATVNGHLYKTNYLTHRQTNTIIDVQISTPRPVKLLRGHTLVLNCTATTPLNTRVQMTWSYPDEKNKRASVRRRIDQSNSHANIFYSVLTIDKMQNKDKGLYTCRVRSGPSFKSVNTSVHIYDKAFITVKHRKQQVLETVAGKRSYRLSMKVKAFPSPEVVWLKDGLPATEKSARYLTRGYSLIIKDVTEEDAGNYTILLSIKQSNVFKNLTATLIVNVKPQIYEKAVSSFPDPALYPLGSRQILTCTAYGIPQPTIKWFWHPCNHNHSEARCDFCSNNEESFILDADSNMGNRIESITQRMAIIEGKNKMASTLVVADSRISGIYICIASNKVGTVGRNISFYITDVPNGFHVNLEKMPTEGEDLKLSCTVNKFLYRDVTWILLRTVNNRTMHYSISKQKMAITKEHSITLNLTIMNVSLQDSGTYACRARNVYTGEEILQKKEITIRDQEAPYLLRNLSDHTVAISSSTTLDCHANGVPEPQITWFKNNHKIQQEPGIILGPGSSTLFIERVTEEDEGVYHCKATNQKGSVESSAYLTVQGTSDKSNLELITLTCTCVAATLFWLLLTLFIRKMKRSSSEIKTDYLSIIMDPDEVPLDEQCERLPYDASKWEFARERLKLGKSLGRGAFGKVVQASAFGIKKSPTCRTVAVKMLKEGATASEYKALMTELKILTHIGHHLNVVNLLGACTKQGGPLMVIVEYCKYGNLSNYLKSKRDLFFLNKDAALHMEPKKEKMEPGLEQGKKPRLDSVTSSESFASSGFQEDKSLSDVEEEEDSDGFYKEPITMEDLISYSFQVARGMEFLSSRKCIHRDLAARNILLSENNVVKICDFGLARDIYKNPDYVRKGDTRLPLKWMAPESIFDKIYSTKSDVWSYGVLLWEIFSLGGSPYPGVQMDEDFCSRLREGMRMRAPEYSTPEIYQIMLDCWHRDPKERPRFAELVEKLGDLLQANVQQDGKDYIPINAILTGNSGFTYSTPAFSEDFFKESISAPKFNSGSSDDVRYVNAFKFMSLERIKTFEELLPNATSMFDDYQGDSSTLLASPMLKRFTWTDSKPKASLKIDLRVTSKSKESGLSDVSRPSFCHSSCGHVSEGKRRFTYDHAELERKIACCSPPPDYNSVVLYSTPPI
Sequence of Histamine H1 receptor (Homo sapiens) (P35367 whole entry): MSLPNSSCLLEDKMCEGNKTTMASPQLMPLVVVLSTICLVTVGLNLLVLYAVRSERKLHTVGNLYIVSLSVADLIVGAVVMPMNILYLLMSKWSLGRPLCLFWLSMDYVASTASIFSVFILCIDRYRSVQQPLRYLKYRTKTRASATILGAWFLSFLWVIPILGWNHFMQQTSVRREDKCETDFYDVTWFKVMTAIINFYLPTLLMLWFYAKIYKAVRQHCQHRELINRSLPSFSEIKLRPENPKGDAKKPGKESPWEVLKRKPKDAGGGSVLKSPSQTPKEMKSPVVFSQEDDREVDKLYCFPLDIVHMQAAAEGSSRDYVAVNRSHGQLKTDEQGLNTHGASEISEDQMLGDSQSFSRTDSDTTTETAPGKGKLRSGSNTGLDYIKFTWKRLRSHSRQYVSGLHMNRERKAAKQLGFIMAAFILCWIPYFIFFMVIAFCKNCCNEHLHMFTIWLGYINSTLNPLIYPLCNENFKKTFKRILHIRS
Sequence of 5-hydroxytryptamine receptor 7 (Homo sapiens) (P34969 whole entry): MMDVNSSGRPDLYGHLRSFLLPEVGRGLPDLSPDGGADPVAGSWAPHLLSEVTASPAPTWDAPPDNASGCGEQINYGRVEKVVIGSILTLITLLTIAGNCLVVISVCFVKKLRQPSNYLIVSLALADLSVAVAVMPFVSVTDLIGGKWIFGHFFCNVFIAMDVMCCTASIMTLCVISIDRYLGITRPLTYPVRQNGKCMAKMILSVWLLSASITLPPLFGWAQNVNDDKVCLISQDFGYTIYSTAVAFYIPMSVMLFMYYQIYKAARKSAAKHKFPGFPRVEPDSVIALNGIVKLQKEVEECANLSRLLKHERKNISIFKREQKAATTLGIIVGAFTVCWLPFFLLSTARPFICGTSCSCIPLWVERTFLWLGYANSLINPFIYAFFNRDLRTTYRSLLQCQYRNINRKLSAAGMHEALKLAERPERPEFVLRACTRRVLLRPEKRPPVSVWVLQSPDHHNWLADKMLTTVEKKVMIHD
Sequence of Acetylcholinesterase (Homo sapiens) (P22303 whole entry): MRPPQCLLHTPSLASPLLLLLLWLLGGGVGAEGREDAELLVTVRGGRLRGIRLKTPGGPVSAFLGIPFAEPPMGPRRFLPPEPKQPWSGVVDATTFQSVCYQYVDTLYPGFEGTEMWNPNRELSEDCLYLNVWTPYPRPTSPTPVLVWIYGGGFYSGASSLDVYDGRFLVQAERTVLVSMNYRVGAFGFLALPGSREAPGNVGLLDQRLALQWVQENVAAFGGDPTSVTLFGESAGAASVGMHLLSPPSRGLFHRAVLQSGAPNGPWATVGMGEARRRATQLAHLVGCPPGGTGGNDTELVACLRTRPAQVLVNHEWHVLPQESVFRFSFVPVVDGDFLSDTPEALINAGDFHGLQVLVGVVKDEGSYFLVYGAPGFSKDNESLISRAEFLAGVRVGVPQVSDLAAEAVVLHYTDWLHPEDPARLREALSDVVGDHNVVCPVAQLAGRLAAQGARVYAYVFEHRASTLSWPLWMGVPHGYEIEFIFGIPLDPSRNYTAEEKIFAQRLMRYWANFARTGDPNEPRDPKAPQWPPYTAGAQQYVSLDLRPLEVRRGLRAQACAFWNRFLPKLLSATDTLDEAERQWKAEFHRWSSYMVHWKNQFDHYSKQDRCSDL

The term Ki denotes a measure of affinity in units of concentration, obtained from inhibition or displacement. The inhibition is the relative decrease from the control value, in per cent. In the case of `O=C(Nc1cccnn1)N1CCC(=Cc2cccc(Oc3ccc(C(F)(F)F)cn3)c2)CC1`, the Ki in data set [1] worked out at 0.249 µM; on Cannabinoid receptor 1, 14 µM. Further, the inhibition in data set [2] was 1%; at Cannabinoid receptor 1 (Compound concentration 10.0 uM), 55%; in data set [3] it was -2%; in [4], -1%; in data set [5], 8%; in data set [6] it was 6%. Moreover, the inhibition was -3% in data set [7]; 7% in data set [8]; 10% in data set [10]; 4% in data set [11]; 10% in data set [12]; 20.2% in data set [13]. Also, the inhibition in data set [14] is 12.3%; in data set [15], 10.3%. In addition, the inhibition at 10 µM in data set [9] is on record as -5% (not active).
